Data set [1] can be described thus: Drug concentration in total white adipose tissue in Wistar Han rat at 1 to 2 mg/kg, iv infused for 10 to 20 hrs by LC-MS/MS analysis. The conditions noted are these: in vivo.
Data set [2] is described as follows: Fraction unbound in Wistar Han rat brain at 2 uM incubated for 6 hrs by equilibrium dialysis method. In general terms: In equilibrium dialysis only unbound substance equilibrates across the membrane.
The nature of data set [3]: Drug concentration in total brain in Wistar Han rat at 1 to 2 mg/kg, iv infused for 10 to 20 hrs by LC-MS/MS analysis. The conditions noted are these: in vivo.
Data set [4] can be described thus: Unbound tissue partition coefficient, ratio of drug level in brain to plasma in Wistar Han rat at 1 to 2 mg/kg, iv infused for 10 to 20 hrs by LC-MS/MS analysis. The conditions noted are these: brain/plasma.
A short description of data set [5]: Apparent permeability of the compound across dog RRCK cells by MDCK-LE assay.
Data set [6] in a line: Drug concentration in total liver in Wistar Han rat at 1 to 2 mg/kg, iv infused for 10 to 20 hrs by LC-MS/MS analysis. The settings on record: in vivo.
The nature of data set [7]: Fraction unbound in Wistar Han rat heart at 2 uM incubated for 6 hrs by equilibrium dialysis method.
Data set [8] is described as follows: Fraction unbound in Wistar Han rat liver at 2 uM incubated for 6 hrs by equilibrium dialysis method.
Data set [9] can be described thus: Unbound tissue partition coefficient, ratio of drug level in skeletal muscle to plasma in Wistar Han rat at 1 to 2 mg/kg, iv infused for 10 to 20 hrs by LC-MS/MS analysis. The settings on record: skeletal muscle/plasma.
A short description of data set [10]: Fraction unbound in Wistar Han rat plasma at 2 uM incubated for 6 hrs by equilibrium dialysis method.
A short description of data set [11]: Unbound tissue partition coefficient, ratio of drug level in liver to plasma in Wistar Han rat at 1 to 2 mg/kg, iv infused for 10 to 20 hrs by LC-MS/MS analysis. The conditions noted are these: liver/plasma.
Data set [12] in a line: Unbound tissue partition coefficient, ratio of drug level in heart to plasma in Wistar Han rat at 1 to 2 mg/kg, iv infused for 10 to 20 hrs by LC-MS/MS analysis. The settings on record: heart/plasma.
A short description of data set [13]: Fraction unbound in Wistar Han rat skeletal muscle at 2 uM incubated for 6 hrs by equilibrium dialysis method.
The nature of data set [14]: Drug concentration in total skeletal muscle in Wistar Han rat at 1 to 2 mg/kg, iv infused for 10 to 20 hrs by LC-MS/MS analysis. The settings on record: in vivo.
Data set [15] can be described thus: Total plasma concentration in Wistar Han rat at 1 to 2 mg/kg, iv infused for 10 to 20 hrs by LC-MS/MS analysis. The conditions noted are these: in vivo.
Data set [16] in a line: Unbound tissue partition coefficient, ratio of drug level in adipose to plasma in Wistar Han rat at 1 to 2 mg/kg, iv infused for 10 to 20 hrs by LC-MS/MS analysis. The conditions noted are these: adipose/plasma.
Data set [17] is described as follows: Drug concentration in total heart in Wistar Han rat at 1 to 2 mg/kg, iv infused for 10 to 20 hrs by LC-MS/MS analysis. The settings on record: in vivo.
Data set [18] in a line: Fraction unbound in Wistar Han rat white adipose tissue at 2 uM incubated for 6 hrs by equilibrium dialysis method.

This is an account of results in ChEMBL document CHEMBL4373746, “Structural attributes influencing unbound tissue distribution” (Eur J Med Chem, 2020).

In general, fraction unbound refers to the share of the substance not bound to proteins or other matrix. For orientation: Papp means a coefficient for how fast a substance crosses the barrier. With `C[C@H]1COCCN1c1nc(-c2cnc(N)nc2)c2c(n1)N([C@@]1(C)CCN(C(=O)C(C)(C)N)C1)CC2`, the Ct in [1] is 45 ng/mL; in data set [3], 2 ng/mL; in data set [6], 46 ng/mL; in [14], 38 ng/mL; in data set [17], 400 ng/mL. The fraction unbound at 6 h, 2 µM was determined as 0.0654 in [2]; 0.0824 in [7]; 0.146 in data set [8]; 0.438 in data set [10]; 0.16 in data set [13]; 0.281 in data set [18]. Also, the Kp uu came out at 0.065 in [4]; 3.5 in data set [9]; 3.6 in data set [11]; 18 in data set [12]; 6.9 in data set [16]. Also, in [5], the Papp turned out to be 5.1 ×10⁻⁶ cm/s. Further, the Cp in data set [15] came to 4.5 ng/mL.

Regarding `Cc1c(C(=O)O)cnn1-c1nc(-c2cccc(C(F)(F)F)c2)cs1`, the Ct in data set [1] came to 13 ng/mL; in data set [3] it was 22 ng/mL; in [6] it was 520 ng/mL; in data set [14], 29 ng/mL; in data set [17] it was 130 ng/mL. Besides, the fraction unbound at 6 h, 2 µM in [2] was found to be 0.00498; in data set [7], 0.00954; in data set [8], 0.00676; in data set [10], 0.00965; in data set [13], 0.0139; in [18], 0.0597. Moreover, the Kp uu amounted to 0.12 in data set [4]; 0.45 in data set [9]; 3.9 in data set [11]; 1.4 in [12]; 0.86 in [16]. For the same compound, the Papp in data set [5] was 38 ×10⁻⁶ cm/s. The compound also gave a Cp in data set [15] of 93 ng/mL.

With `NC(=O)c1c(-c2ccc(Oc3ccc(Cl)cc3)cc2)nn([C@@H]2CCCN(C(=O)/C=C/CO)C2)c1N`, the Ct came to 21 ng/mL in data set [1]; 2.4 ng/mL in data set [3]; 470 ng/mL in [6]; 97 ng/mL in data set [14]; 240 ng/mL in [17]. In addition, the fraction unbound at 6 h, 2 µM in data set [2] came out at 0.00529; in [7] it was 0.013; in data set [8] it was 0.0115; in data set [10], 0.0219; in [13], 0.0154; in data set [18] it was 0.113. The Kp uu in data set [4] turned out to be 0.011; in [9], 1.3; in [11], 4.5; in data set [12], 2.7; in [16], 2. In addition, in data set [5], the Papp turned out to be 5.5 ×10⁻⁶ cm/s. The compound further registered a Cp in data set [15] of 55 ng/mL.

As to `COc1cc2c(OC[C@H]3NC(=O)[C@@H]4C[C@]34C)nccc2cc1C(N)=O`, the Ct in [1] came to 16 ng/mL; in [3], 3.7 ng/mL; in data set [6] it was 1000 ng/mL; in [14], 67 ng/mL; in data set [17] it was 100 ng/mL. Further, the fraction unbound at 6 h, 2 µM in data set [2] is 0.294; in data set [7], 0.399; in data set [8] it was 0.368; in data set [10] it was 0.298; in data set [13], 0.403; in data set [18], 0.803. In addition, the Kp uu in [4] turned out to be 0.032; in data set [9], 0.8; in data set [11], 11; in data set [12], 1.2; in [16], 0.38. The Papp in data set [5] came to 19 ×10⁻⁶ cm/s. The compound also returned a Cp in data set [15] of 110 ng/mL.

Turning to `CC(C)n1ncc2c1C(=O)CC1(CCN(C(=O)c3ccc4[nH]nc(C(N)=O)c4c3)CC1)C2`, the Ct in [1] is 17 ng/mL; in [3], 0.38 ng/mL; in data set [6] it was 500 ng/mL; in data set [14], 30 ng/mL; in data set [17], 62 ng/mL. Further, the fraction unbound at 6 h, 2 µM in data set [2] was determined as 0.0763; in data set [7], 0.121; in data set [8] it was 0.108; in [10] it was 0.119; in [13] it was 0.172; in [18] it was 0.398. For the same compound, the Kp uu came to 0.0018 in data set [4]; 0.76 in [9]; 7.9 in [11]; 1.1 in data set [12]; 0.98 in [16]. Further, the Papp in [5] turned out to be 3.6 ×10⁻⁶ cm/s. Further, in [15], the Cp came to 65 ng/mL.

Turning to `Cn1nc(C(=O)NCCN2CCOCC2)cc1-c1cc2ccccc2[nH]1`, the Ct was 29 ng/mL in data set [1]; 19 ng/mL in [3]; 300 ng/mL in data set [6]; 42 ng/mL in data set [14]; 150 ng/mL in data set [17]. Further, the fraction unbound at 6 h, 2 µM in data set [2] was determined as 0.0291; in [7] it was 0.0422; in [8] it was 0.0714; in data set [10], 0.176; in data set [13], 0.0664; in data set [18] it was 0.189. In addition, the Kp uu in [4] was 0.12; in data set [9], 0.57; in data set [11], 4.4; in data set [12] it was 1.3; in [16], 1.1. In addition, the Papp in [5] is 33 ×10⁻⁶ cm/s. In data set [15], this compound registered a Cp of 29 ng/mL.

`Cc1ccc(NC(=O)c2cc(Oc3ccc(S(C)(=O)=O)cc3)c3c(c2)OC(C)(C)C3)nc1`: the Ct was 1000 ng/mL in data set [1]; 69 ng/mL in data set [3]; 150 ng/mL in [6]; 89 ng/mL in [14]; 220 ng/mL in data set [17]. Further, the fraction unbound at 6 h, 2 µM in [2] was found to be 0.0077; in data set [7], 0.0109; in data set [8] it was 0.00864; in [10], 0.0809; in data set [13], 0.011; in data set [18], 0.00216. Also, the Kp uu came out at 0.1 in [4]; 0.18 in data set [9]; 0.24 in data set [11]; 0.43 in [12]; 0.41 in data set [16]. Besides, in data set [5], the Papp was found to be 22 ×10⁻⁶ cm/s. Besides, the Cp in data set [15] came out at 68 ng/mL.

For the compound `CC(=O)NS(=O)(=O)c1ccc(Oc2ccc(F)c(Cl)c2)c(C(F)(F)F)c1`, the Ct worked out at 14 ng/mL in data set [1]; 4.4 ng/mL in data set [3]; 1.4 ng/mL in data set [6]; 24 ng/mL in [14]; 103 ng/mL in [17]. Also, the fraction unbound at 6 h, 2 µM in [2] worked out at 0.0319; in data set [7], 0.0329; in [8], 0.0598; in data set [10], 0.00426; in [13] it was 0.0581; in [18], 0.229. The Kp uu is 0.074 in data set [4]; 0.72 in data set [9]; 0.033 in data set [11]; 1.8 in [12]; 1.6 in data set [16]. Also, the Papp in data set [5] was determined as 35 ×10⁻⁶ cm/s. The compound further yielded a Cp in data set [15] of 450 ng/mL.
